Measured values taken from patent US20020198135A1, “Compositions for release of radiosensitizers, and methods of making and using the same” (priority 2000, published 2002).

What was measured:
[1] = test system: human cancer cell line JHU 012; experiment: JHU 012 human cancer cell line tumor in the anterior floor of the mouth of nude mice, intratumoral injection; type: in vivo, immunocompromised (nude) mice; conditions: intratumoral injection ten days after cell injection, same radiation treatment (as appropriate); measured at approximately twenty days after injection
Procedure: In another in vivo experiment, 1×10^7 cells from the human cancer cell line JHU 012 were injected into the anterior floor of the mouth of immunocompromised (nude) mice. Ten days following injection, animals were anesthetized, tumors measured, intumoral injections of the same compositions identified above were completed followed by the same radiation treatment (as appropriate). At approximately twenty days after injection, animals sacrificed and tumors measured. The following approximate tumor sizes (mm^3) were observed: no treatment, 750; radiation alone, 300; empty microspheres, 500; 47% IUdR microspheres (1.175 mg IUdR in injection volume of 50 ul), 425; empty rods, 250; 33% IUdR rods, 350; and direct intrumoral injection of IUdR (0.065 mg to 0.12 mg in injection volume of 50 ul), 100.

[2] = test system: U251 xenograft; experiment: U251 xenograft model, IUdR polymer paste with continuous ULDR and fractionated HDR; type: in vivo, mice; conditions: IUdR via 16.7% P(trans-CHDM/HOP) paste, ULDR 0.03 Gy/hr for 72 hr, FIG. 25
Procedure: To test the effect of protracted exposure sensitization, a 137-Cs source was mounted a fixed distance above the cages of animals bearing xenografts for whole body continuous ULDR (as defined below). […] For purposes of this experiment, ULDR=0.03 Gy/hr for 72 hr started 24 hours after xenograft transplantation, and HDR=2 Gy twice a day for 4 days, started immediately after ULDR, which is 4 days after implantation.

## O=c1[nH]c(=O)n([C@H]2C[C@H](O)[C@@H](CO)O2)cc1I [IUdR, 5-iododeoxyuridine]
[1]
  approximate tumor size: ~100 mm^3
[2]
  xenograft growth delay, combination of IUdR and ULDR compared with ULDR plus HDR: more potent than the combination of IUdR and ULDR
[2]; HDR 2 Gy twice a day for 4 days
  xenograft growth, combination of IUdR, ULDR and HDR: tumor regression
